Measurements reported in the NIST ThermoML archive (doi:10.1016/j.jct.2015.12.031).
Numbers after ± are expanded uncertainties.

Tests used:
[1] = Liquid; for speed of sound: Sing-around technique in a fixed-path interferometer; for mass density: Vibrating tube method
[2] = refractive index (Na D-line) (dimensionless); details: Liquid, Standard Abbe refractometry
[3] = mn = molality of the nth substance listed, in mol/kg; details: 86.5 kPa, Liquid, m2 = 0; for speed of sound: Frequency=3 MHz, Sing-around technique in a fixed-path interferometer; for mass density: Vibrating tube method
[4] = refractive index (Na D-line) (dimensionless); mn = molality of the nth substance listed, in mol/kg; details: 86.5 kPa, Liquid, Standard Abbe refractometry, m2 = 0
[5] = 288.15 K, 86.5 kPa, Frequency=3 MHz
[6] = 293.15 K, 86.5 kPa, Frequency=3 MHz
[7] = 298.15 K, 86.5 kPa, Frequency=3 MHz
[8] = 303.15 K, 86.5 kPa, Frequency=3 MHz

Row | Structure (SMILES) | speed of sound [1, 5] | mass density ([1]; 288.15 K, 86.5 kPa) | speed of sound [1, 6] | mass density ([1]; 293.15 K, 86.5 kPa) | speed of sound [1, 7] | mass density ([1]; 298.15 K, 86.5 kPa) | speed of sound [1, 8] | mass density ([1]; 303.15 K, 86.5 kPa) | refractive index ([2]; 288.15 K, 86.5 kPa) | refractive index ([2]; 293.15 K, 86.5 kPa) | refractive index ([2]; 298.15 K, 86.5 kPa) | refractive index ([2]; 303.15 K, 86.5 kPa) | other results
1 | c1ccsc1 [thiophene] |  |  |  |  |  |  |  |  |  |  |  |  | speed of sound ([1]; 298.15 K, 101.33 kPa): 1279 ± 1.3 m/s; mass density ([1]; 298.15 K, 101.33 kPa): 1058.56 ± 7 kg/m3; speed of sound ([1]; 303.15 K, 101.33 kPa): 1258.7 ± 1.3 m/s; refractive index ([2]; 298.15 K, 101.33 kPa): 1.5252 ± 0.0011
2 | CCCCCCCC [octane] + c1ccsc1 |  |  |  |  |  |  |  |  |  |  |  |  | speed of sound ([3]; 288.15 K): 1214.5 ± 5.1 m/s; mass density ([3]; 288.15 K): 706.994 ± 7.5 kg/m3; speed of sound ([3]; 293.15 K): 1193.3 ± 5.1 m/s; mass density ([3]; 293.15 K): 702.995 ± 7.5 kg/m3; speed of sound ([3]; 298.15 K): 1172.4 ± 5.1 m/s; mass density ([3]; 298.15 K): 698.923 ± 7.4 kg/m3; speed of sound ([3]; 303.15 K): 1151.5 ± 5.1 m/s; mass density ([3]; 303.15 K): 694.878 ± 7.4 kg/m3; refractive index ([4]; 288.15 K): 1.3998 ± 0.0015; refractive index ([4]; 293.15 K): 1.3973 ± 0.0015; refractive index ([4]; 298.15 K): 1.3949 ± 0.0015; refractive index ([4]; 303.15 K): 1.3924 ± 0.0015
3 | CCCCCCCC [octane] | 1214.5 ± 5.1 m/s | 706.994 ± 7.5 kg/m3 | 1193.3 ± 5.1 m/s | 702.995 ± 7.5 kg/m3 | 1172.4 ± 5.1 m/s | 698.923 ± 7.4 kg/m3 | 1151.5 ± 5.1 m/s | 694.878 ± 7.4 kg/m3 | 1.3998 ± 0.0015 | 1.3973 ± 0.0015 | 1.3949 ± 0.0015 | 1.3924 ± 0.0015 | 
4 | CCCCCCn1cc[n+](C)c1.[Br-] [3-hexyl-1-methyl-1H-imidazolium bromide] | 1639.4 ± 3.2 m/s | 1231.02 ± 7.5 kg/m3 | 1610.4 ± 3.2 m/s | 1227.43 ± 7.5 kg/m3 | 1587.1 ± 3.2 m/s | 1223.74 ± 7.5 kg/m3 | 1568.7 ± 3.2 m/s | 1220.35 ± 7.5 kg/m3 | 1.5282 ± 0.0012 | 1.5268 ± 0.0012 | 1.5254 ± 0.0012 | 1.5237 ± 0.0012 | 
5 | CCCCCCCCn1cc[n+](C)c1.[Br-] [1-methyl-3-octylimidazolium bromide] | 1605.2 ± 3.2 m/s | 1179.37 ± 7.4 kg/m3 | 1581.9 ± 3.2 m/s | 1176.17 ± 7.4 kg/m3 | 1561.9 ± 3.2 m/s | 1172.98 ± 7.4 kg/m3 | 1542.8 ± 3.2 m/s | 1169.86 ± 7.4 kg/m3 | 1.525 ± 0.0012 | 1.5236 ± 0.0012 | 1.5221 ± 0.0012 | 1.5206 ± 0.0012 | 
